Source: patent US10011568B2, “Cyclohexyl pyridine derivative” (priority 2014, dated 2018)

Tests used:
human NK1 receptor [1] = target: T1, human NK1 receptor (Homo sapiens (Human), UniProt P25103); assay: Affinity for human NK1 receptor (125I-substance P receptor binding test, membrane fraction); conditions: membrane fraction of human NK1 receptor-expressing 293T cells; read-out: IC50 (nM), concentration required for 50% inhibition of 125I-substance P binding
Experimental: Affinity for Human NK1 Receptor
(3) Measurement of Binding Affinity to Human NK1 Receptor
(3-1) Preparation of Membrane Fraction from Human NK1 Receptor-Expressing Cells
Human NK1 receptor-expressing cells were prepared in a 175 cm^2 culture flask (Nippon Becton Dickinson). The formation of a complex of the human NK1 receptor expression plasmid and Lipofectamine 2000 was performed by calculating the culture area ratio and increasing the scale of the method described in the above 2-4 by the ratio. The human NK1 receptor-expressing cells were collected in a buffer solution for the membrane fraction preparation (50 mM Tris (Wako Pure Chemical), 120 mM sodium chloride (Wako Pure Chemical Industries), 5 mM potassium chloride (Wako Pure Chemical Industries), 1 mM ethylenediaminetetraacetic acid (Sigma), 0.002 mg/mL chymostatin (Peptide Institute), 0.04 mg/bacitracin (Wako Pure Chemical Industries), 0.005 mg/mL phosphoramidon (Peptide Institute) and 0.5 mM phenylmethylsulfonyl fluoride (Wako Pure Chemical Industries), pH7.4) and centrifuged at 1,880 g for 10 minutes, and the cell sediment was suspended in the buffer solution for the membrane fraction preparation. After freezing and thawing the cells once, the cells were homogenized using a Dounce-type homogenizer (cooled on ice, 1000 rpm, 20 times) The homogenized cell suspension was centrifuged at 20,000 rpm for 10 minutes, and the supernatant was removed to obtain cell sediment. The cell sediment was suspended again in the buffer solution for the membrane fraction preparation and homogenized using a Dounce-type homogenizer (cooled on ice, 1000 rpm, 30 times). The cell suspension was centrifuged at 20,000 rpm for 10 minutes, and the supernatant was removed to obtain cell sediment. The same homogenization and centrifugation were repeated again, and final cell sediment was obtained. The final cell sediment was suspended in a buffer solution for the receptor binding test (50 mM Tris (Wako Pure Chemical Industries). 3 mM manganese chloride (Wako Pure Chemical Industries), 0.002 mg/mL chymostatin (Peptide Institute), 0.04 mg/bacitracin (Wako Pure Chemical Industries) and 0.02% bovine serum albumin (Sigma), pH 7.4), and the protein concentration was measured using BCA Protein Assay Kit (Pierce).
(3-2) Receptor Binding Test
The buffer solution for the receptor binding test was dispensed to the wells of a 96-well assay plate (Greiner) at 22.5 μL/well. DMSO solutions of a test compound, which were prepared at an 80-time higher concentration using 100% dimethyl sulfoxide (DMSO), were added to the wells at 2.5 μL/well (final concentrations of 1 nM to 100 nM), and the solutions were mixed. As a radiolabeled ligand, ^125I-substance P (Substance P, [^125I]Tyr^8-, Perkin Elmer) was used. ^125I-substance P was diluted with the buffer solution for the receptor binding test to a concentration resulting in 125 pmol/25 μL/well and added to the 96-well assay plate, and the solutions were mixed. The membrane fraction prepared from the human NK1 receptor-expressing cells was diluted with the buffer solution for the receptor binding test to a concentration resulting in 8 to 10 μg/well, suspended until the suspension became in such a homogenous state that the suspension could flow through a 27G injection needle smoothly and then added to the 96-well assay plate at 150 μL/well. Then, the plate was incubated at room temperature for 60 minutes while shaking the plate. The reaction solutions were suction-filtered through a multiscreen 96-well filter plate (Millipore) which had been pre-treated with 0.3% polyethyleneimine, and the reaction was terminated by washing with a washing solution (50 mM Tris and 0.02% bovine serum albumin, pH 7.4) four times. The bottom of the microplate was dried at 60° C., and then 100 μL/well of MicroScint 20 (PerkinElmer) was dispensed to the wells. The top of the plate was sealed with TopSeal A (PerkinElmer), and the plate was shaken for 5 to 10 minutes. […]

NK1 receptor = NK1 receptor (Meriones unguiculatus (Mongolian jird) (Gerbillus unguiculatus), UniProt Q5DUB1); assay: Effect on foot-tapping induced by NK1 receptor agonist GR73632; assay type: in vivo; conditions: male gerbil, 0.1 mg/kg iv, GR73632 after four hours
Chain of NK1 receptor (Q5DUB1 whole entry): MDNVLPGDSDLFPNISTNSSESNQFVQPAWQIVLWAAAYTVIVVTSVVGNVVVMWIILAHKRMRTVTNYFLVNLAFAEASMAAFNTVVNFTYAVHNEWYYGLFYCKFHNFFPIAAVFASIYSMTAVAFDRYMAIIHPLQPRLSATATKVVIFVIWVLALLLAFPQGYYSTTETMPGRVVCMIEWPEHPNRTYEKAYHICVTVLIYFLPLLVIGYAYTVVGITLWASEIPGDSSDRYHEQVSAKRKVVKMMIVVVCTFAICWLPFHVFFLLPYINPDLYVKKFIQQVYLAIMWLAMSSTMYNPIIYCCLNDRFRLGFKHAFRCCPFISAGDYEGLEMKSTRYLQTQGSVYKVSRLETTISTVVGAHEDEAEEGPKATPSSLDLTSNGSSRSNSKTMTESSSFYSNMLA
Experimental: (1) Effect on Foot-Tapping
The test compound solution was prepared by dissolving the test compound in a vehicle (a mixture of 50% N,N-dimethylacetamide (Wako Pure Chemical Industries), 30% propylene glycol (Wako Pure Chemical Industries). 4% 2-hydroxypropyl-β-cyclodextrin (Wako Pure Chemical Industries) and 16% distilled water).
(§1) A male gerbil (Japan SLC) was anesthetized with isoflurane, and 0.1 mg/kg of a test compound was administered from the jugular vein. After four hours. GR73632 (5 pmol/5 μl saline), which is an NK1 receptor agonist, was administered into the cerebral ventricle at the part 1 mm lateral to and 4.5 mm below the bregma in the head, under anesthesia with isoflurane. After the administration, the gerbil was moved to an observation cage, and the foot-tapping period during 30 minutes after the recovery of the righting reflex was measured. The foot-tapping inhibition rate (%) of each test compound was calculated by the following equation. Foot-tapping inhibition rate (%)−{1−(Fool-tapping period when test compound was administered)/(Foot-tapping period when solvent was administered)}×100 (2) Measurement of Drug Concentrations
(§2) In the table, Ex. No. means the Example number. Inhibition (%) is the loot-tapping inhibition rate, and Cone. (nM) is the drug concentration in the brain.

human CYP3A4 = human CYP3A4 (Homo sapiens (Human), UniProt P08684); assay: Inhibitory effect on CYP3A4; assay type: in vitro ADME; conditions: 30-minute pre-incubation, Luciferin-IPA substrate; read-out: IC50 (μM), CYP3A4 inhibition
Chain of human CYP3A4 (P08684 whole entry): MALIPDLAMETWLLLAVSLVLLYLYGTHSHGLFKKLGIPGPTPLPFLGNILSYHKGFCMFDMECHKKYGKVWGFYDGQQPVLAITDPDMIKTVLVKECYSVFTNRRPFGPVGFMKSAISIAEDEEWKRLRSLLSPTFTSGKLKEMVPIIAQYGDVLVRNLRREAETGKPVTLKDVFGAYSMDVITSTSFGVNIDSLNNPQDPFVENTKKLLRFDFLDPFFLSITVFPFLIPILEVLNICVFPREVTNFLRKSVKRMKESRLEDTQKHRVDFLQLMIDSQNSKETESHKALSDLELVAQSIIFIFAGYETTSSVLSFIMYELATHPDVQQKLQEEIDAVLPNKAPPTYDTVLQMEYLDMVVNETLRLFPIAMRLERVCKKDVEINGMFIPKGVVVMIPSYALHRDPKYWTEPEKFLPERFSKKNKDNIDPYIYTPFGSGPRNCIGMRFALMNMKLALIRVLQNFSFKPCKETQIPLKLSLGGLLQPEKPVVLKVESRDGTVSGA
Experimental: Inhibitory Effect on CYP3A4
Enzyme reaction was performed by incubating in a potassium phosphate buffer solution (pH 7.4) containing 1 nM to 20 μM test compound, 3.2 mM magnesium chloride, 0.2 pmol human CYP3A4 (BD Biosciences), 0.5 mM reduced nicotinamide adenine dinucleotide phosphate (NADPH) and 3 μM Luciferin-IPA (Promega) at 37° C. for 10 minutes. The volume of the reaction solution was 50 μL/well. The 30-minute pre-incubation group was incubated at 37° C. for 30 minutes before adding tire substrate, the Luciferin-IPA solution (12.5 μL/well). At the end of the enzyme reaction, 50 μL/well of a Luciferin detection reagent (Promega) was added to the wells, and the plate was left at room temperature for 20 minutes. Then, the emission intensities were measured with Infinite M1000 (TECAN). The enzyme activities (%) relative to the value of the group to which the test compound was not added were calculated.

[2] = Measurement of drug concentrations in the brain after foot-tapping; assay type: in vivo; conditions: male gerbil, 0.1 mg/kg iv, after foot-tapping was finished
Experimental: as §1
After foot-tapping was finished, laparotomy was performed immediately under anesthesia with ether, and a blood sample was taken from the abdominal vena cava. At the same lime, the brain was extracted. Through a quantitative analysis using liquid chromatography-mass spectrometry (LC/MS), the concentrations of the test compound in the plasma and the brain were measured.
as §2

human NK1 receptor [3] = target: T1, human NK1 receptor; assay: Inhibitory effect on human NK1 receptor (substance P-induced increase in intracellular calcium concentration); assay type: cell-based; conditions: substance P 1 μM, compound 0.1 μM; read-out: SPRR (%), Substance P-Response Remaining (intracellular calcium concentration)
Experimental: Inhibitory Effect on Human NK1 Receptor
(1) Preparation of Human NK1 Receptor-Expressing Cells
Human NK1 receptor-expressing cells were prepared by the same methods as those described in 2-3 of Test Example 1.
(2) Study on Inhibitory Effect on Increase in Intracellular Calcium Concentration
The human NK1 receptor-expressing cells were washed with 300 μL/well of a washing solution (20 mM HEPES/Hank's Balanced Salt Solution (HBSS) pH 7.3). A fluorescent calcium indicator (Fluo-4 Direct Calcium Assay Kit, Life Technologies, containing 0.42 mM probenecid and 0.1% bovine serum albumin, prepared according to the protocol of the product) was added to the wells at 150 μL/well, and the plate was incubated at 37° C. for 30 minutes in an incubator. Then. DMSO solutions of a test compound, which were prepared at an 80-time higher concentration using 100% dimethyl sulfoxide (DMSO), were added to the wells at 2.5 μL/well (final concentrations of 0.1, 1 and 10 μM), and the solutions were mixed. Then, the plate was further incubated at […] for 30 minutes in an incubator. After 30 minutes, the intracellular calcium concentrations were measured immediately.
The intracellular calcium concentrations were each measured as a fluorescent signal using FDSS (registered trademark) 7000 (Hamamatsu Photonics). A substance P (Peptide Institute. Inc.) solution which was prepared at 0.4 μM or 4 μM using an assay buffer (20 mM HEPES/Hank's Balanced Salt Solution (HBSS) pH 7.3, containing 0.1% bovine serum albumin) was added automatically to each well at 50 μL/well (final concentration of 0.1 or 1 μM) 10 seconds after starting reading, and the fluorescent signal was measured up to 120 seconds.
The intracellular calcium concentration (%) of the cells to which a test compound was added was calculated by the equation below, where the fluorescent signal of the group to which the vehicle (DMSO) was added was regarded as 100%, and the fluorescent signal before the addition of substance P was regarded as 0%. Intracellular calcium concentration (%)—(Fluorescent signal of test compound addition group)/(Fluorescent signal of vehicle addition group)×100
The intracellular calcium concentration (%) calculated was regarded as the remaining agonist activity of substance P (Substance P-Response Remaining: SPRR). In the table, Ex. No. means the Example number. SPRR (%) is the value obtained when the concentration of substance P was 1 μM and the concentration of the compound was 0.1 μM.

T1 sequence (P25103 whole entry): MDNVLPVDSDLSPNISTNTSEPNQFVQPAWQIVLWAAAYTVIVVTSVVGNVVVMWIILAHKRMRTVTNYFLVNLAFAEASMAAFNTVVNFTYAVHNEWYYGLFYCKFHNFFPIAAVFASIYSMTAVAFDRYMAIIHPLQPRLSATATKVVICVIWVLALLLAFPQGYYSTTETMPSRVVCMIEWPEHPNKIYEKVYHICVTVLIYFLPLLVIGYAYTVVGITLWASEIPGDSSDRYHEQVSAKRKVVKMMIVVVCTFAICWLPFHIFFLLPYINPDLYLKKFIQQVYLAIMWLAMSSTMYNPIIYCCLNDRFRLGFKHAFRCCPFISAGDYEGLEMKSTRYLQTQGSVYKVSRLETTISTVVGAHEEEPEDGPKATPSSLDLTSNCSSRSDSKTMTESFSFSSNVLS

Structure (SMILES) | IC50 (human NK1 receptor [1]) | Inhibition (%), foot-tapping inhibition rate (NK1 receptor) | IC50 (human CYP3A4) | Conc. (nM), drug concentration in the brain [2] | remaining activity at 0.1 µM (human NK1 receptor [3])
Cc1cc(F)ccc1-c1cc(C2CCC(CC(=O)O)CC2)nc(Cl)c1N(C)C(=O)C(C)(C)c1cc(C(F)(F)F)cc(C(F)(F)F)c1 (stereo not shown) [Example 17, {4-[5-{[2-(3,5-Bistrifluoromethylphenyl)-2-methylpropionyl]methylamino}-6-chloro-4-(4-fluoro-2-methylphenyl)pyridin-2-yl]cyclohexyl}acetic Acid] |  |  | 3.3 µM | 57 nM | 
Cc1cc(F)ccc1-c1cc(C2CCC(CCC(=O)O)CC2)ncc1N(C)C(=O)C(C)(C)c1cc(C(F)(F)F)cc(C(F)(F)F)c1 (stereo not shown) [Example 2, 3-{4-[5-{[2-(3,5-Bistrifluoromethylphenyl)-2-methylpropionyl]methylamino}-4-(4-fluoro-2-methylphenyl)pyridin-2-yl]cyclohexyl}propionic Acid] |  |  | 6.8 µM | 19 nM | 7.5%
Cc1cc(F)ccc1-c1cc(C2CCC(C)(CC(=O)O)CC2)ncc1N(C)C(=O)C(C)(C)c1cc(C(F)(F)F)cc(C(F)(F)F)c1 (stereo not shown) [Example 15, {4-[5-{[2-(3,5-Bistrifluoromethylphenyl)-2-methylpropionyl]methylamino}-4-(4-fluoro-2-methylphenyl)pyridin-2-yl]-1-methylcycloheyl}acetic Acid] |  | 100% |  | 39 nM | 3.7%
Cc1cc(F)ccc1-c1cc(C2CCC(CC(=O)O)CC2)nc(CO)c1N(C)C(=O)C(C)(C)c1cc(C(F)(F)F)cc(C(F)(F)F)c1 (stereo not shown) [Example 19, {4-[5-{[2-(3,5-Bistrifluoromethylphenyl)-2-methylpropionyl]methylamino}-4-(4-fluoro-2-methylphenyl)-6-hydroxymethylpyridin-2-yl]cyclohexyl}acetic Acid] | 4.96 nM | 95% |  | 24 nM | 26%

Continued by falling IC50 (human CYP3A4), values first:

IC50 (human NK1 receptor [1]) | Inhibition (%), foot-tapping inhibition rate (NK1 receptor) | IC50 (human CYP3A4) | Conc. (nM), drug concentration in the brain [2] | remaining activity at 0.1 µM (human NK1 receptor [3]) | Structure (SMILES)
0.98 nM |  | 13 µM |  | 26% | Cc1cc(F)ccc1-c1cc(C2CCC(CC(=O)O)CC2)ncc1N(C)C(=O)C(C)(CO)c1cc(C(F)(F)F)cc(C(F)(F)F)c1 (stereo not shown) [Example 5, {4-[5-{[2-(3,5-Bistrifluoromethylphenyl)-3-hydroxy-2-methylpropionyl]methylamino}-4-(4-fluoro-2-methylphenyl)pyridin-2-yl]cyclohexyl}acetic Acid]
1 nM |  | 6.1 µM |  | 21% | Cc1cc(F)ccc1-c1cc(C2CCC(O)(CC(=O)O)CC2)ncc1N(C)C(=O)C(C)(C)c1cc(C(F)(F)F)cc(C(F)(F)F)c1 (stereo not shown) [Example 6, {4-[5-{[2-(3,5-Bistrifluoromethylphenyl)-2-methylpropionyl]methylamino}-4-(4-fluoro-2-methylphenyl)pyridin-2-yl]-1-hydroxycyclohexyl}acetic Acid]
6.45 nM | 100% | 4.9 µM | 47 nM |  | Cc1cc(F)ccc1-c1cc(C2CCC(CC(=O)O)CC2)nc(C)c1N(C)C(=O)C(C)(C)c1cc(C(F)(F)F)cc(C(F)(F)F)c1 (stereo not shown) [Example 18, {4-[5-{[2-(3,5-Bistrifluoromethylphenyl)-2-methylpropionyl]methylamino}-4-(4-fluoro-2-methylphenyl)-6-methylpyridin-2-yl]cyclohexyl}acetic Acid]
4.46 nM |  | 2.2 µM |  | 53% | Cc1cc(F)ccc1-c1cc([C@H]2CC[C@@H](C(C)(C)C(=O)O)CC2)ncc1N(C)C(=O)C(C)(C)c1cc(C(F)(F)F)cc(C(F)(F)F)c1 [Example 12, cis-2-{4-[5-{[2-(3,5-Bistrifluoromethylphenyl)-2-methylpropionyl]methylamino}-4-(4-fluoro-2-methylphenyl)pyridin-2-yl]cyclohexyl}-2-methylpropionic Acid]
